{
  "source": "patent US20170190726A9",
  "about": "“PRODRUG FOR RELEASE OF CISPLATIN AND CYCLOOXYGENASE INHIBITOR” (priority 2013, published 2017)",
  "key": {"[1]": {"tested_on": "COX-2 expression in PC3 cells", "assay": "Immunofluorescence analysis of COX-2 expression in PC3 cells", "type": "cell-based, Human", "conditions": "TNF-α 20 ng/mL 2 h, then 1 μM test article 2 h", "method": "Human TNF-α (20 ng/mL) was then added to the cells and incubated for 2 h. […] The cells were then fixed with a 4% paraformaldehyde solution for 30 min at room temperature. […] The coverslips were washed 3 times with H2O and 3 times with PBS. […] After 5 washes with blocking buffer, the cells were mounted on microscope slides with mounting media (20 mM Tris of pH 8.0, 0.5% N-propyl gallate, and 70% glycerol). Images were collected with 500 ms exposure using DAPI and FITC filters. Relative fluorescence units (RFUs) were also analyzed by a plate reader at an excitation wavelength of 488 nm and an emission of 519 nm."}, "[2]": {"assay": "Cyclic voltammetry", "type": "physicochemical", "experimental": "FIG. 6: Cyclic voltammograms of ‘Platin-A’ in 1:4 dimethyformamide (DMF)-phosphate buffer-0.1 M KCl at two different pH values.\nElectrochemical measurements were made at 25° C. on an analytical system model CHI 920c potentiostat from CH Instruments, Inc. (Austin, Tex.). A conventional three-electrode set-up comprising a glassy carbon working electrode, platinum wire auxiliary electrode and an Ag/AgCl (3M KCl) reference electrode was used for electrochemical measurements. The electrochemical data were uncorrected for junction potentials. KCl was used as a supporting electrolyte. Platin-A (2 mM) solutions were prepared in 20% DMF-phosphate buffered saline (PBS) of pH 6.4 and 7.4 with […] and voltammograms were recorded at different scan rates (FIG. 6)."}, "[3]": {"tested_on": "TNF-α", "assay": "ELISA of TNF-α in LPS-stimulated RAW 264.7 macrophages", "type": "cell-based, mouse", "method": "RAW 264.7 cells were plated at a concentration of 10,000 cells/mL in 96 plates and allowed to grow overnight. For preventative anti-inflammatory treatment, Platin-A (10 μM), aspirin (10 μM), cisplatin (10 μM) and an equimolar ratio of cisplatin and aspirin (10 μM each) was incubated with the RAW cells for 6 h. Lipopolysaccharide (LPS) (100 ng/mL) was added and the cells were further incubated for 12 h. For therapeutic anti-inflammatory treatment, LPS (100 ng/mL) was added to the RAW cells and incubated for 6 h. Platin-A (10 μM), aspirin (10 μM), cisplatin (10 μM) and an equimolar ratio of cisplatin and aspirin (10 μM each) was then added to the cells and incubated for 12 h. ELISA was performed on the supernatants against the cytokines interleukin (IL)-6, IL-10, and TNF-α. Briefly, antibody coated plates were blocked with 10% FBS in PBS for 1 h at room temperature followed by 3 washes. RAW cell supernatants were incubated on the plates for 2 h at room temperature. This was immediately followed by washings and sequential incubations with the cytokine-biotin conjugate and streptavidin working solution. Finally, the substrate reagent containing 3,3′,5,5′-tetramethylbenzidine (100 μL) was added to each well, incubated for 15 min, the reaction was stopped by adding 50 μL H2SO4 (0.1 M). The absorbance was recorded at 450 nm using a BioTek Synergy HT well plate reader."}, "[4]": {"tested_on": "RAW 264.7 macrophages", "assay": "MTT cell viability of LPS activated RAW 264.7 macrophages", "type": "cell-based, mouse", "conditions": "10 μM, 24 h", "experimental": "FIG. 16: Cytotoxicity of Platin-A (10 μM), cisplatin (10 μM), aspirin (10 μM), and cisplatin (10 μM)+aspirin (10 μM) on LPS activated RAW 264.7 macrophages with incubation time of 24 h.\nThe cytotoxic behaviors of cisplatin, aspirin, cisplatin+aspirin, and Platin-A were evaluated using the MTT assay against PC3, DU145, LNCaP, and RAW 264.7 cells. Cells (2000 cells/well for PC3, and DU145 cells; 10000 cells/well for LNCaP and RAW 264.7) were seeded on a 96-well plate in 100 μL of desired medium and incubated for 24 h. The cells were treated with different constructs at varying concentrations and incubated for 72 h at 37° C. except for RAW 264.7 macrophages. An incubation time period of 24 h was used for macrophages. The cells were then treated with 20 μL of MTT (5 mg/mL in PBS) for 5 h. The medium was removed, the cells were lysed with 100 μL of DMSO, and the absorbance of the purple formazan was recorded at 550 nm using a Bio-Tek Synergy HT microplate reader. Each well was performed in triplicate. […] The IC50 values were reported at +95% confidence intervals."}, "[5]": {"tested_on": "IL-10", "assay": "ELISA of IL-10 in LPS-stimulated RAW 264.7 macrophages", "type": "cell-based, mouse", "conditions": "preventive: pretreatment 10 μM 6 h, then LPS 12 h", "text": "Chronic inflammation can be important for progression of human cancers, including PCa. Pro-inflammatory cytokines, TNF-α and interleukin (IL)-6, can be important for proliferation, survival, metastasis, and escape from immune surveillance of cancers. Chronic inflammation by activation of toll like receptors (TLRs) on cancer cells creates a tumor micro-environment which impairs the anti-tumor function of the immune system to allow to develop and survive. The cytokines TNF-α and IL-6 are potent activators of NF-κB, a key modulator of inflammation-induced carcinogenesis. Enhanced TNF-α secretion mediates cisplatin nephrotoxicity. The anti-inflammatory cytokine, IL-10 inhibits inflammatory and cytotoxic pathways in cisplatin-induced acute renal injury. […] First, we evaluated the effects of Platin-A, cisplatin, a combination of cisplatin and aspirin, and aspirin on pro-inflammatory cytokines IL-6, TNF-α, and anti-inflammatory IL-10 production in LPS-stimulated RAW 264.7 macrophages. […] To exclude the possibility that the decrease in the cytokines levels was simply due to the cytotoxicity of Platin-A, cell viability was evaluated. […]\nRAW 264.7 cells were plated at a concentration of 10,000 cells/mL in 96 plates and allowed to grow overnight. […] The absorbance was recorded at 450 nm using a BioTek Synergy HT well plate reader."}},
  "data": [
    {"smiles": "CC(=O)Oc1ccccc1C(=O)[O][Pt]([NH2])([NH2])([OH])([Cl])[Cl]", "note": "[Platin-A]", "values": [
      {"measurement": "COX-2 expression in TNF-α stimulated PC3 cells", "setting": "[1]", "value": "levels were reduced"},
      {"measurement": "positive shift of reduction potential", "setting": "[2]; pH 6.4 compared with pH 7.4", "value": 42, "unit": "mV"},
      {"measurement": "reduction potential", "setting": "[2]; pH 7.4, vs. normal hydrogen electrode (NHE)", "value": "−536", "unit": "mV"},
      {"measurement": "LPS-induced TNF-α production", "setting": "[3]; preventive: pretreatment 10 μM 6 h, then LPS 12 h", "value": "significantly inhibited"},
      {"measurement": "levels of TNF-α", "setting": "[3]; therapeutic: LPS activated macrophages then 10 μM for 12 h", "value": "significantly reduced"},
      {"measurement": "cell viability", "setting": "[4]", "value": "did not affect cell viability"},
      {"measurement": "level of IL-10", "setting": "[5]", "value": "enhanced level of IL-10"}
    ]}
  ]
}
